From patent US20210000727A1, “DITHIAZOCANE COMPOUNDS FOR THE COSMETIC USE THEREOF” (L'OREAL, priority 2017, published 2021)

Columns and labels:
normal human melanocytes = test: Depigmenting activity (reduction of melanin production) in normal human melanocytes in vitro; format: cell-based; conditions: Melanocyte, 72 hours incubation, optical density of melanin, maximum concentration tested 200 μM, read-out: IC50 (concentration at which a 50% decrease in melanin synthesis is achieved)
Protocol: The measurement of the depigmenting activity (reduction of melanin production) of compounds of formula (I) was performed by assaying normal human melanocytes in vitro as follows.
First of all, normal human melanocytes are cultured and dispensed into wells. After 24 hours, the culture medium was replaced with a medium containing compounds of formula (I) to be evaluated. The cells were incubated 72 hours before measurement of the final optical density, which measures the amount of melanin produced by the melanocytes. A dose effect is performed using a wide concentration range of the compounds evaluated. Thus, by making the concentrations and the melanin measurements correspond, it is possible to determine an IC50 in μM: concentration at which a 50% decrease in melanin synthesis is achieved.
Various test campaigns were conducted and the results collated in the table below.

[1] = system: coculture of keratinocytes and melanocytes; test: Coculture experiment: melanogenesis-modulating effect and cytotoxicity; format: cell-based; conditions: for IC50: melanin optical density, read-out: IC50 (concentration for which 50% of the melanin synthesis is inhibited)
Protocol: The melanogenesis-modulating effect of compound 1 was measured according to the method described in patent FR-A-2734825, and also in the article by R. Schmidt, P. Krien and M. Régnier, Anal. Biochem., 235(2), 113-18, 1996. This test is performed on a coculture of keratinocytes and melanocytes.
The following were determined for the test compound: • the cytotoxicity, • the inhibitory activity on melanin synthesis, by estimating the melanin optical density.
The IC50 values (concentration for which 50% of the melanin synthesis is inhibited) were determined.

[2] = system: pigmented reconstructed epidermis; test: Depigmenting activity on pigmented reconstructed epidermis (melanin quantified by image analysis, Fontana Masson); format: cell-based, human; conditions: 300 μM in DMSO, control DMSO, Mann-Whitney test, pValue<0.05
Protocol: Compositions comprising 300 μM of compound 1 in DMSO were applied to samples of pigmented reconstructed epidermis (cf. EP 1 878 790). The control is DMSO.
The melanin was quantified by image analysis on histological slices after staining with Fontana Masson dye. Each sample of coloured epidermis is photographed over its entire length using a camera connected to a microscope. The melanin is thresholded and the number of melanin pixels is measured in each field using automated image analysis software. A non-parametric statistical test is performed in order to determine the significance of the measurements (Mann-Whitney test, see FIG. 1).
The pigmented reconstructed epidermis standard study model was published by: Regnier M, Duval C, Galey J B, Philippe M, Lagrange A, Tuloup R, Schmidt R, Cellular and Molecular Biology, 1999, 45, 7, 969-980: “Keratinocyte-Melanocyte co-cultures and pigmented reconstructed human epidermis: models to study modulation of melanogenesis”.

## CC1(C)CSSC[C@@H](C(=O)O)NC1=O [Compound 1, 7,7-dimethyl-6-oxo-1,2,5-dithiazocane-4-(R)-carboxylic acid]
Normal human melanocytes
  IC50: 62.5 µM
[1]
  cytotoxicity: non-cytotoxic
  IC50: 9.6 µM
[2]
  depigmenting activity (melanin quantified by image analysis): Significant depigmenting activity

## COC(=O)[C@@H]1CSSCC(C)(C)C(=O)N1 [Compound 2, methyl 7,7-dimethyl-6-oxo-1,2,5-dithiazocane-4(R)-carboxylate]
Normal human melanocytes
  IC50: 13.6 µM
[1]
  cytotoxicity: non-cytotoxic
  IC50: 0.74 µM

## CC1(C)CSSCC(C(N)=O)NC1=O (stereo not shown) [Compound 3′, 7,7-dimethyl-6-oxo-1,2,5-dithiazocane-4-carboxamide]
Normal human melanocytes
  IC50: 2.35 µM

## CN(C)C(=O)C1CSSCC(C)(C)C(=O)N1 (stereo not shown) [Compound 4′, N,N,7,7-tetramethyl-6-oxo-1,2,5-dithiazocane-4-carboxamide]
Normal human melanocytes
  IC50: 4.23 µM

## CCOC(=O)C1CSSCC(C)(C)C(=O)N1 (stereo not shown) [Compound 5′, ethyl 7,7-dimethyl-6-oxo-1,2,5-dithiazocane-4-carboxylate]
[1]
  cytotoxicity: non-cytotoxic
  IC50: 0.79 µM

## CC(C)OC(=O)C1CSSCC(C)(C)C(=O)N1 (stereo not shown) [Compound 6′, propan-2-yl 7,7-dimethyl-6-oxo-1,2,5-dithiazocane-4-carboxylate]
Normal human melanocytes
  IC50: 1.9 µM
[1]
  cytotoxicity: non-cytotoxic
  IC50: 1.57 µM

## CC1(C)CSSCC(C(=O)NCCO)NC1=O (stereo not shown) [Compound 7′, N-(2-hydroxyethyl)-7,7-dimethyl-6-oxo-1,2,5-dithiazocane-4-carboxamide]
Normal human melanocytes
  IC50: < 0.4 µM
[1]
  cytotoxicity: non-cytotoxic
  IC50: 1.04 µM

## CCOC(=O)CNC(=O)C1CSSCC(C)(C)C(=O)N1 (stereo not shown) [Compound 8′, ethyl N-[(7,7-dimethyl-6-oxo-1,2,5-dithiazocan-4-yl)carbonyl]glycinate]
Normal human melanocytes
  IC50: 0.87 µM
[1]
  cytotoxicity: non-cytotoxic
  IC50: 1.23 µM

## CCOC(=O)C(Cc1ccccc1)NC(=O)C1CSSCC(C)(C)C(=O)N1 (stereo not shown) [Compound 9′, ethyl N-[(7,7-dimethyl-6-oxo-1,2,5-dithiazocan-4-yl)carbonyl]phenylalaninate]
Normal human melanocytes
  IC50: 20.8 µM

## COCCOCCOC(=O)C1CSSCC(C)(C)C(=O)N1 (stereo not shown) [Compound 10′, 2-(2-methoxyethoxy)ethyl 7,7-dimethyl-6-oxo-1,2,5-dithiazocane-4-carboxylate]
Normal human melanocytes
  IC50: 5.26 µM
[1]
  cytotoxicity: non-cytotoxic
  IC50: 7.62 µM

## COCC(C)OCC(C)OCC(C)OC(=O)C1CSSCC(C)(C)C(=O)N1 (stereo not shown) [Compound 11′, 1-({1-[(1-methoxypropan-2-yl)oxy]propan-2-yl}oxy)propan-2-yl 7,7-dimethyl-6-oxo-1,2,5-dithiazocane-4-carboxylate]
Normal human melanocytes
  IC50: 10.7 µM

## CC1(C)CSSCC(C(=O)NCC(=O)O)NC1=O (stereo not shown) [Compound 12′, N-[(7,7-dimethyl-6-oxo-1,2,5-dithiazocan-4-yl)carbonyl]glycine]
Normal human melanocytes
  IC50: 63.8 µM

## CCCCCCCNC(=O)C1CSSCC(C)(C)C(=O)N1 (stereo not shown) [Compound 13′, N-heptyl-7,7-dimethyl-6-oxo-1,2,5-dithiazocane-4-carboxamide]
Normal human melanocytes
  IC50: 0.66 µM

## CC1(C)CSSCC(C(=O)OCC(O)CO)NC1=O (stereo not shown) [Compound 18′, 2,3-dihydroxypropyl 7,7-dimethyl-6-oxo-1,2,5-dithiazocane-4-carboxylate]
Normal human melanocytes
  IC50: 9.8 µM
